Test system: HeLa cells
Assay: S phase checkpoint western blot analysis
Type: cell-based, human
Details: SDS-PAGE and western blot
Procedure: FIG. 15. […] HeLa cells were incubated in the presence of granaticin A or carrier control (DMSO) for the indicated times and whole cell extracts were subjected to SDS-PAGE and western blot analysis. Asyn=asynchronously growing HeLa cells. HU=HeLa cells exposed to hydroxyurea for the indicated time. HU was used as a control for DNA damaging agent that is known to […] the DNA damage checkpoint response. Again, we observed that Mcm2 mobility is shifted in the cells treated with granaticin A. MCM2 mobility is not affected by HU. Activation of the DNA damage/replication checkpoint correlates with ATM/ATR dependent phosphorylation of Chk1 at Ser345.

## NC(=O)NO [HU, hydroxyurea, reference compound]
  Mcm2 mobility: not affected
